Data published in ChEMBL document CHEMBL6178014, “Discovery and Administration Optimization of Novel Selective CDK9 Inhibitor, 1-7a-B1, for Improved Pharmacokinetics and Antitumor Efficacy In Vivo” (J Med Chem, 2025).
Calls of active or inactive are those of the source. No cut-off for these calls is given here.

Tests used:
HCT-116 [1] = experiment: Antitumor activity against human HCT-116 cells xenografted in female BALB/c nu-nu mouse assessed as downregulation of c-Myc mRNA expression at 40 mg/kg, po incubated for 48 hrs by qRT-PCR analysis; type: functional, organism-based
HCT-116 [2] = experiment: Inhibition of wild type p53/MDM2 protein-protein interaction in human HCT-116 cells at 200 nM incubated for 48 hrs by co-immunoprecipitation (Co-IP) analysis; type: cell-based
HCT-116 [3] = experiment: Antitumor activity against human HCT-116 cells xenografted in female BALB/c nu-nu mouse assessed as increase in caspase-3 cleavage at 40 mg/kg, po incubated for 48 hrs by Western blot analysis; type: functional, organism-based
HCT-116 [4] = experiment: Antiproliferative activity against human HCT-116 cells assessed as reduction in colony formation incubated for 14 days by crystal violet staining based analysis; type: functional, cell-based; settings: dose 50-400 nM, time 14.0 day
[5] = MRT (infinity) in Sprague-Dawley rat at 30 mg/kg, po measured after 24 hrs by LC-MS/MS analysis; type: ADME, organism-based; settings: in vivo
Mitochondrial membrane = experiment: Induction of mitochondrial membrane depolarization in human HCT-116 cells at 100 to 400 nM incubated for 48 hrs by JC-1 staining based flow cytometry analysis; type: cell membranes; settings: dose 100-400 nM
HCT-116 [6] = experiment: Upregulation of Bax expression in human HCT-116 cells at 100 to 400 nM incubated for 48 hrs by Western blot analysis; type: functional, cell-based; settings: dose 100-400 nM
A549 = experiment: Cytotoxicity against human A549 cells assessed as cell viability incubated for 48 hrs by CCK8 assay; type: functional, cell-based
[7] = Metabolic stability in human liver microsome assessed as intrinsic clearance at 100 uM pre-incubated with compound for 60 mins followed by NADPH addition and measured up to 60 mins by LC-MS/MS analysis; type: ADME; settings: liver microsomes, read-out: CLH
[8] = Toxicity in female BALB/c nu-nu mouse xenografted with human HCT-116 cells assessed as histopathological changes in spleen at 40 mg/kg, po administered once daily for 3 weeks by H and E staining based analysis; type: organism-based; settings: in vivo, 504 h
CYP2D6 = CYP2D6 (Homo sapiens, UniProt P10635); experiment: Inhibition of CYP2D6 in human liver microsome at 10 uM pre-incubated with compound for 10 mins in presence of NADPH-regenerating system by LC-MS/MS analysis relative to control; type: ADME; settings: liver microsomes
HCT-116 [9] = experiment: Downregulation of c-Myc mRNA level in human HCT-116 cells at 200 to 400 nM incubated for 48 hrs by qRT-PCR analysis; type: functional, cell-based; settings: dose 200-400 nM
[10] = AUC (0 to infinity) in Sprague-Dawley rat at 30 mg/kg, po measured after 24 hrs by LC-MS/MS analysis; type: ADME, organism-based; settings: in vivo
HCT-116 [11] = experiment: Downregulation of Mcl-1 mRNA level in human HCT-116 cells at 200 to 400 nM incubated for 48 hrs by qRT-PCR analysis; type: functional, cell-based; settings: dose 200-400 nM
HCT-116 [12] = experiment: Induction of apoptosis in human HCT-116 cells assessed as increase in caspase-3 activity at 100 to 200 nM incubated for 48 hrs by GreenNuc substrate based flow cytometry analysis; type: functional, cell-based; settings: dose 100-200 nM
CDK2/Cyclin A2 = CDK2/Cyclin A2 (Homo sapiens, UniProt P24941); experiment: Inhibition of CDK2/cyclA2 (unknown origin) by ADP-Glo assay; type: protein-complex assay
HCT-116 [13] = experiment: Effect on MDM2 expression in human HCT-116 cells at 100 to 400 nM incubated for 48 hrs by Western blot analysis; type: functional, cell-based; settings: dose 100-400 nM
[14] = Toxicity in female BALB/c nu-nu mouse xenografted with human HCT-116 cells assessed as histopathological changes in spleen at 20 mg/kg, po as submicron emulsion administered once daily for 3 weeks by H and E staining based analysis; type: organism-based; settings: in vivo, 504 h
[15] = target: E3 ubiquitin-protein ligase Mdm2 (Homo sapiens) (UniProt Q00987); experiment: Inhibition of MDM2 phosphorylation at ser166 residue in human HCT-116 cells at 100 to 400 nM incubated for 48 hrs by Western blot analysis; type: cell-based; settings: dose 100-400 nM
[16] = Toxicity in female BALB/c nu-nu mouse xenografted with human HCT-116 cells assessed as body weight loss at 20 mg/kg, po as submicron emulsion administered once daily for 3 weeks; type: organism-based; settings: in vivo, 504 h
HCT-116 [17] = experiment: Downregulation of Bcl-2 level in human HCT-116 cells at 200 to 400 nM incubated for 48 hrs by Western blot analysis; type: functional, cell-based; settings: dose 200-400 nM
CDK4/Cyclin D3 = CDK4/Cyclin D3 (Homo sapiens, UniProt P11802); experiment: Inhibition of CDK4/cycD3 (unknown origin) by ADP-Glo assay; type: protein-complex assay
[18] = Clearance in Sprague-Dawley rat at 2 mg/kg, iv measured after 24 hrs by LC-MS/MS analysis; type: ADME, organism-based; settings: in vivo
[19] = MRT (infinity) in Sprague-Dawley rat at 30 mg/kg, po as submicron emulsion measured after 24 hrs by LC-MS/MS analysis; type: ADME, organism-based; settings: in vivo
CDK9/cyclin T1 = CDK9/cyclin T1 (Homo sapiens, UniProt P50750); experiment: Binding affinity to CDK9/cyclin T1 (unknown origin) assessed as dissociation constant by SPR analysis; type: protein-complex assay
[20] = AUC (0 to infinity) in Sprague-Dawley rat at 30 mg/kg, po as submicron emulsion measured after 24 hrs by LC-MS/MS analysis; type: ADME, organism-based; settings: in vivo
[21] = Oral bioavailability in Sprague-Dawley rat at 30 mg/kg as submicron emulsion measured after 24 hrs by LC-MS/MS analysis; type: ADME, organism-based; settings: in vivo
[22] = Toxicity in female BALB/c nu-nu mouse xenografted with human HCT-116 cells assessed as histopathological changes in heart at 40 mg/kg, po administered once daily for 3 weeks by H and E staining based analysis; type: organism-based; settings: in vivo, 504 h
HCT-116 [23] = experiment: Antitumor activity against human HCT-116 cells xenografted in female BALB/c nu-nu mouse assessed as reduction in Ki67 positive cells at 20 mg/kg, po as submicron emulsion by staining based analysis; type: functional, organism-based
[24] = Toxicity in female BALB/c nu-nu mouse xenografted with human HCT-116 cells assessed as histopathological changes in lung at 40 mg/kg, po administered once daily for 3 weeks by H and E staining based analysis; type: organism-based; settings: in vivo, 504 h
[25] = Metabolic stability in human liver assessed as intrinsic clearance at 100 uM pre-incubated with compound for 60 mins followed by NADPH addition and measured up to 60 mins by LC-MS/MS analysis; type: ADME, tissue-based; settings: read-out: CLH
HCT-116 [26] = experiment: Antitumor activity against human HCT-116 cells xenografted in female BALB/c nu-nu mouse assessed as downregulation of Mcl-1 mRNA expression at 40 mg/kg, po incubated for 48 hrs by qRT-PCR analysis; type: functional, organism-based
HCT-116 [27] = experiment: Antitumor activity against human HCT-116 cells xenografted in female BALB/c nu-nu mouse assessed as reduction in Ki67 positive cells at 40 mg/kg, po by staining based analysis; type: functional, organism-based
[28] = Half life in Sprague-Dawley rat at 30 mg/kg, po as submicron emulsion measured after 24 hrs by LC-MS/MS analysis; type: ADME, organism-based; settings: in vivo

Sequence of E3 ubiquitin-protein ligase Mdm2 (Homo sapiens) (Q00987 whole entry, looked up): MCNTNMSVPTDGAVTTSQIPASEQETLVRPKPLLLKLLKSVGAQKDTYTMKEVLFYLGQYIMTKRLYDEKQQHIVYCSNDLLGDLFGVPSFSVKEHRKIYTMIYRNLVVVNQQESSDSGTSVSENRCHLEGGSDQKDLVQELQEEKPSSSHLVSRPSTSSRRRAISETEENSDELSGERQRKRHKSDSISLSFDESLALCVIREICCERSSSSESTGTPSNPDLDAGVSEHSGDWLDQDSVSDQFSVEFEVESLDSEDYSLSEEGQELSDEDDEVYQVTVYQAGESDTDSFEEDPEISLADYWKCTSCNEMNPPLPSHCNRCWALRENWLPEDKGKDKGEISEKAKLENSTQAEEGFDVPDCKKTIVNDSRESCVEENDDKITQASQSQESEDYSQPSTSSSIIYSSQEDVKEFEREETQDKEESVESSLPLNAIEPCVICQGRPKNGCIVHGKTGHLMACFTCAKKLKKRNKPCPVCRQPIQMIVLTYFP
Sequence of CYP2D6 (P10635 whole entry): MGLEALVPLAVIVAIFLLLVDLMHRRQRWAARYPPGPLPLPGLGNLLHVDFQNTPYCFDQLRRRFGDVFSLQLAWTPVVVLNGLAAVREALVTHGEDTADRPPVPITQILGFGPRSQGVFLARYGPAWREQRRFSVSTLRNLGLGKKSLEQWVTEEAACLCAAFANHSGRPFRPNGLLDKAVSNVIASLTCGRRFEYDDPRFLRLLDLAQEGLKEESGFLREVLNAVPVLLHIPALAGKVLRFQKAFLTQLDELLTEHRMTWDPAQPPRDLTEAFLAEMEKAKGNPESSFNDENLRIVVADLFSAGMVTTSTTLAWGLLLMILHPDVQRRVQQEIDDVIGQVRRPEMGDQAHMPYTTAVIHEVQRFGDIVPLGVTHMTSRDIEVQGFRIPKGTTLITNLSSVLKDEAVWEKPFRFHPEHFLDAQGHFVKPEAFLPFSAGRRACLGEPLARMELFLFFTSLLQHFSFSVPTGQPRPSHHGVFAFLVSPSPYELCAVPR
Sequence of CDK9/cyclin T1 (O60563 whole entry): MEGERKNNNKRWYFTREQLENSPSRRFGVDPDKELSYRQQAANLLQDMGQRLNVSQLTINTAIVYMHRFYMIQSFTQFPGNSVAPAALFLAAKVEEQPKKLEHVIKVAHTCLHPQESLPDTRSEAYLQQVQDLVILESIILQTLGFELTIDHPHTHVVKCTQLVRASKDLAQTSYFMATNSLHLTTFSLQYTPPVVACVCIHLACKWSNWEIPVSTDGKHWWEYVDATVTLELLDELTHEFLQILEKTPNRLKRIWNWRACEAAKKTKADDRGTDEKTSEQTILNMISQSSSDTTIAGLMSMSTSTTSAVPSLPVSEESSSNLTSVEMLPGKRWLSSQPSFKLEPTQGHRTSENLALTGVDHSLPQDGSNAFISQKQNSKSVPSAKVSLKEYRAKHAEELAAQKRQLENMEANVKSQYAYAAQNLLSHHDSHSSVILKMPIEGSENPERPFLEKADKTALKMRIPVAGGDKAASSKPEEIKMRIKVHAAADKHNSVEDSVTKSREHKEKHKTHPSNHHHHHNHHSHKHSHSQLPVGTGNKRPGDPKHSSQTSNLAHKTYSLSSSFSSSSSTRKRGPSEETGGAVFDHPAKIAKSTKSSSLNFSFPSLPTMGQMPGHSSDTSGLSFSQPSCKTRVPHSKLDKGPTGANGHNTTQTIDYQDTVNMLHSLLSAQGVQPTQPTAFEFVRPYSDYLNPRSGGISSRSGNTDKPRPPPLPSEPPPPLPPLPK
Sequence of CDK9/cyclin T1 (P50750 whole entry): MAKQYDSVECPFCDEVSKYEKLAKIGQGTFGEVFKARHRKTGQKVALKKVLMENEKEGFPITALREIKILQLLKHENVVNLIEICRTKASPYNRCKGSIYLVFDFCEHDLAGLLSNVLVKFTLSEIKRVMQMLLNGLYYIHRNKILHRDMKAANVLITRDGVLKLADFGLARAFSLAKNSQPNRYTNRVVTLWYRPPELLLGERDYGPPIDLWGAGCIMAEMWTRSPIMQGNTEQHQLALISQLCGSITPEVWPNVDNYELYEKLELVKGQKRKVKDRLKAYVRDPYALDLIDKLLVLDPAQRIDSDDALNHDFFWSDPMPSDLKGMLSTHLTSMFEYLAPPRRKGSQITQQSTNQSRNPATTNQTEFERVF
Sequence of CDK4/Cyclin D3 (P11802 whole entry): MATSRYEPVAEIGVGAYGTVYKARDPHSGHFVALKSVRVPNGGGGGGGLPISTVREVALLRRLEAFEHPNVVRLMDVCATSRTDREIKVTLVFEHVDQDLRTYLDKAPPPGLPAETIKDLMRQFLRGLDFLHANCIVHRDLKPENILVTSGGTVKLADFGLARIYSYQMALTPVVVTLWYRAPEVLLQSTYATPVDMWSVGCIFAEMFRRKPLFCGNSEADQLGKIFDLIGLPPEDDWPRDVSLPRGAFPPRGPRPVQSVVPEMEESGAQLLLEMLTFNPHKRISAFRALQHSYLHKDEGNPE
Sequence of CDK4/Cyclin D3 (P30281 whole entry, further chain): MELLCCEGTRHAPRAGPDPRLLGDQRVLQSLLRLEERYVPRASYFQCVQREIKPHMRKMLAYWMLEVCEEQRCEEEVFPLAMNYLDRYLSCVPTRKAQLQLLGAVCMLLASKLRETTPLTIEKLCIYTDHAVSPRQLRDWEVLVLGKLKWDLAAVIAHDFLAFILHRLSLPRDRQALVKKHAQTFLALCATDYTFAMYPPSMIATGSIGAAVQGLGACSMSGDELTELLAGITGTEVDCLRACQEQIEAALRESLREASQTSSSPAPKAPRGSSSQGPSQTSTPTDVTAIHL

MRT inf [5]: 1.45 h
Activity (Mitochondrial membrane): Active
microsomal CLint at 100 µM [7]: 352 µL/min/mg
inhibition at 10 µM (CYP2D6): 42.6%
AUC [10]: 900 ng·h/mL
IC50 (CDK2/Cyclin A2): 1.18 µM
inhibition [15]: Active
IC50 (CDK4/Cyclin D3): 1.82 µM
clearance [18]: 81.8 mL/min/kg
MRT inf [19]: 2.08 h
Kd (CDK9/cyclin T1): 8.87 µM
AUC [20]: 1611 ng·h/mL
bioavailability [21]: 26.4%
CLint scaled at 100 µM [25]: 317 mL/min/kg
half-life [28]: 0.92 h
SMILES: CC(C)Oc1cc(F)ccc1-c1ccnc(NC(=O)Nc2cccc(C(=O)N3CCN(C)CC3)c2)c1
Activity (HCT-116 [1]): Active
inhibition (HCT-116 [2]): Active
Activity (HCT-116 [3]): Active
Activity (HCT-116 [4]): Dose-dependent-effect
Activity (HCT-116 [6]): Active
Activity (A549): Active
Activity [8]: Non-toxic
Activity (HCT-116 [9]): Active
Activity (HCT-116 [11]): Active
Activity (HCT-116 [12]): Active
Activity (HCT-116 [13]): inactive
Activity [14]: Non-toxic
Activity [16]: Non-toxic
Activity (HCT-116 [17]): Active
Activity [22]: Non-toxic
Activity (HCT-116 [23]): Active
Activity [24]: Non-toxic
Activity (HCT-116 [26]): Active
Activity (HCT-116 [27]): Active
